These results are taken from ChEMBL document CHEMBL5576135, “Discovery of Indolo[3,2-c]isoquinoline Derivatives as Novel Top1/2 Dual Inhibitors with Orally Efficacious Antitumor Activity and Low Toxicity” (J Med Chem, 2024).

One data set deals with MCF7. The data set can be described thus: Antiproliferative activity against human MCF7 cells assessed as inhibition of cell growth incubated for 96 hrs by MTT based ELISA. The conditions noted are these: MCF7, 96 h. Type of data set: functional. On the technique in general: An ELISA detects its analyte on a solid surface through an enzyme-linked reagent.
The test system of another data set is MDA-MB-231. Nature of the data set: Antiproliferative activity against human MDA-MB-231 cells assessed as inhibition of cell growth incubated for 96 hrs by MTT based ELISA. Type of data set: functional. The conditions noted are these: MDA-MB-231, 96 h.
The test system of the next data set is PC-3. Nature of the data set: Antiproliferative activity against human PC-3 cells assessed as inhibition of cell growth incubated for 96 hrs by MTT based ELISA. Type of data set: functional. The conditions noted are these: PC-3, 96 h.
Data set [1] has as its system HCT-116. The data set can be described thus: Antiproliferative activity against human HCT-116 cells assessed as inhibition of cell growth incubated for 96 hrs by MTT based ELISA. Type of data set: functional. The conditions noted are these: HCT-116, 96 h.
Another data set has as its system NCI-H2228. The data set can be described thus: Antiproliferative activity against human NCI-H2228 cells assessed as inhibition of cell growth incubated for 96 hrs by MTT based ELISA. The conditions noted are these: NCI-H2228, 96 h. In kind it is functional.
For the next data set, the system named is Huh-7. Nature of the data set: Antiproliferative activity against human Huh-7 cells assessed as inhibition of cell growth incubated for 96 hrs by MTT based ELISA. The conditions noted are these: Huh-7, 96 h. In kind it is functional.
The next data set deals with NCI-H1975. Nature of the data set: Antiproliferative activity against human NCI-H1975 cells assessed as inhibition of cell growth incubated for 96 hrs by MTT based ELISA. Type of data set: functional. The conditions noted are these: NCI-H1975, 96 h.
In a further data set the test system is NCI-H1650. Nature of the data set: Antiproliferative activity against human NCI-H1650 cells assessed as inhibition of cell growth incubated for 96 hrs by MTT based ELISA. Type of data set: functional. The conditions noted are these: NCI-H1650, 96 h.
The subject of another data set is A549. The data set can be described thus: Antiproliferative activity against human A549 cells assessed as inhibition of cell growth incubated for 96 hrs by MTT based ELISA. In kind it is functional. The conditions noted are these: A549, 96 h.
The subject of the next data set is PC-9. The data set can be described thus: Antiproliferative activity against human PC-9 cells assessed as inhibition of cell growth incubated for 96 hrs by MTT based ELISA. In kind it is functional. The conditions noted are these: PC-9, 96 h.
The test system of data set [2] is NCI-H446. The data set can be described thus: Antiproliferative activity against human NCI-H446 cells assessed as inhibition of cell growth incubated for 96 hrs by MTT based ELISA. In kind it is functional. The conditions noted are these: NCI-H446, 96 h.
For the next data set, the system named is DU-145. Nature of the data set: Antiproliferative activity against human DU-145 cells assessed as inhibition of cell growth incubated for 96 hrs by MTT based ELISA. The conditions noted are these: DU-145, 96 h. In kind it is functional.
Data set [3] in a line: Antiproliferative activity against human BEAS-2B cells assessed as inhibition of cell growth incubated for 96 hrs by MTT based ELISA. Type of data set: toxicity.
Data set [4] is described as follows: Toxicity in Kunming mouse assessed as reduction in body weight at 30 mg/kg,ip administrated for 3 days. Details: scale not given: the % may be the effect or the level left. The conditions noted are these: in vivo, 72 h, time 3 day. Type of data set: organism-based.
For data set [5], the system named is NCI-H446. Nature of the data set: Antitumor activity against human NCI-H446 cells xenografted with BALB/c mouse assessed as tumor growth inhibition at 4 mg/kg,ip administrated 3 times weekly for 21 days in presence of cisplatin relative to control. Type of data set: functional. The conditions noted are these: NCI-H446, 504 h, time 21 day, read-out: TGI. (In general: Xenograft models place foreign cells or tissue in a host animal.)

Data set [6] concerns NCI-H446. The data set can be described thus: Antitumor activity against human NCI-H446 cells xenografted with BALB/c mouse assessed as tumor growth inhibition by measuring T/C ratio at 4 mg/kg,ip administrated 3 times weekly for 21 days in presence of cisplatin. In kind it is functional. The conditions noted are these: time 21 day.
The test system of data set [7] is NCI-H446. The data set can be described thus: Induction of DNA damage in human NCI-H446 cells assessed as tail DNA at 8 uM incubated for 48 hrs by comet assay relative to control. In kind it is functional.
For data set [8], the system named is NCI-H446. Nature of the data set: Induction of DNA damage in human NCI-H446 cells assessed as increase in intracellular gamma-H2AX level at 8 uM incubated for 48 hrs by Western blotting analysis. In kind it is functional, cell-based. (A western blot detects proteins with antibodies after separation by electrophoresis.)
The subject of data set [9] is NCI-H446. The data set can be described thus: Induction of DNA damage in human NCI-H446 cells assessed as increase in intracellular ROS level at 8 uM incubated for 6 hrs by DCFHDA probe based fluorescence microscopic analysis. Type of data set: functional, cell-based.
Data set [10] relates to NCI-H446. Nature of the data set: Induction of cell cycle arrest in human NCI-H446 cells assessed as accumulation of cells at S phase at 8 uM incubated for 48 hrs by propidium iodide/RNase A staining based flow cytometry. In kind it is functional.
For data set [11], the system named is NCI-H446. The data set can be described thus: Induction of cell cycle arrest in human NCI-H446 cells assessed as accumulation of cells at G2/M phase at 8 uM incubated for 48 hrs by propidium iodide/RNase A staining based flow cytometry. In kind it is functional.
The test system of data set [12] is NCI-H446. The data set can be described thus: Induction of apoptosis in human NCI-H446 cells at 8 uM incubated for 48 hrs by Annexin V-FITC/PI staining based flow cytometry relative to control. Type of data set: functional.
Data set [13] has as its system NCI-H446. The data set can be described thus: Inhibition of colony formation in human NCI-H446 cells at 1 uM incubated for 24 hrs by crystal violet staining based analysis relative to control. In kind it is functional.
Data set [14] relates to NCI-H446. The data set can be described thus: Inhibition of colony formation in human NCI-H446 cells at 2 uM incubated for 24 hrs by crystal violet staining based analysis relative to control. In kind it is functional.
Data set [15] has as its system NCI-H446. Nature of the data set: Inhibition of cell migration in human NCI-H446 cells at 4 uM incubated for 48 hrs by phase-contrast microscopic analysis relative to control. Type of data set: functional.
For data set [16], the system named is HCT-116. The data set can be described thus: Antitumor activity against human HCT-116 cells xenografted with BALB/c mouse assessed as tumor growth inhibition at 20 mg/kg,ip administrated twice weekly for 21 days relative to control. Type of data set: functional, organism-based. The conditions noted are these: time 21.0 day.
In data set [17] the test system is HCT-116. The data set can be described thus: Antitumor activity against human HCT-116 cells xenografted with BALB/c mouse assessed as tumor growth inhibition by measuring T/C ratio at 20 mg/kg,ip administrated twice weekly for 21 days. In kind it is functional, organism-based. The conditions noted are these: time 21.0 day.
The nature of data set [18]: Toxicity in Kunming mouse assessed as lethal dose at po administration for 2 weeks. Type of data set: organism-based. The conditions noted are these: in vivo.
A short description of data set [19]: Toxicity in Kunming mouse assessed as reduction in body weight at 100 mg/kg,po administrated for 3 days. The conditions noted are these: in vivo, 72 h, time 3 day. On the set-up: scale not given: the % may be the effect or the level left. In kind it is organism-based.

Active and inactive are the calls of the source. The rule behind the calls is not given here.

Consider `COc1cc([C@@H]2c3cc4c(cc3[C@@H](O[C@@H]3O[C@@H]5CO[C@@H](C)O[C@H]5[C@H](O)[C@H]3O)[C@H]3COC(=O)[C@H]23)OCO4)cc(OC)c1O` [ETOPOSIDE], for which the IC50 (commonly the point on the concentration scale where inhibition reaches its midpoint) is 1180 nM in the data set with MCF7; 2870 nM in the data set with MDA-MB-231; 1590 nM with PC-3; 2000 nM in the data set on HCT-116 [1]; 2510 nM with NCI-H2228; 3800 nM in the data set with Huh-7. Also, the IC50 in the data set with NCI-H1975 is 340 nM; in the data set with NCI-H1650, 2650 nM; in the data set with A549, > 10000 nM; in the data set with PC-9, 2220 nM; with NCI-H446 [2], 240 nM; in the data set on DU-145 it was 1650 nM. Also, in data set [3], the IC50 at 96 h was > 10000 nM. Besides, the Activity in data set [4] is reported as > 10%. The inhibition in vivo at 4 mg/kg with NCI-H446 [5] turned out to be 27.7%. The T/C (commonly the ratio of treated to control) in the data set on NCI-H446 [6] came to 68.2%.
On to `CCc1c2c(nc3ccc(OC(=O)N4CCC(N5CCCCC5)CC4)cc13)-c1cc3c(c(=O)n1C2)COC(=O)[C@]3(O)CC` [IRINOTECAN], for which the IC50 in the data set on MCF7 was 4590 nM; with MDA-MB-231, > 10000 nM; with PC-3, 3670 nM; with HCT-116 [1], 3160 nM; in the data set on NCI-H2228, 3430 nM; with Huh-7, > 10000 nM. For the same compound, the IC50 in the data set with NCI-H1975 is 3410 nM; with NCI-H1650, 6800 nM; in the data set on A549 it was > 10000 nM; with PC-9 it was 3840 nM; in the data set on NCI-H446 [2], 780 nM; in the data set on DU-145 it was 960 nM. Besides, the IC50 at 96 h in data set [3] is > 10000 nM. Also, the Activity in the data set with NCI-H446 [7] was 27.8%; in the data set on NCI-H446 [10], 59.3%; in the data set on NCI-H446 [11] it was 59.3%; in the data set on NCI-H446 [12], 5.3%; in [4], > 10%. The outcome with NCI-H446 [8] and with NCI-H446 [9] was Active. Besides, in the data set with NCI-H446 [13], the inhibition (usually the change of the read-out against control, counted positive when it falls) at 1 µM amounted to 85.8%. In the data set on NCI-H446 [14], this compound yielded an inhibition at 2 µM of 33.7%. Further, in the data set with NCI-H446 [15], the inhibition at 4 µM was determined as 54.5%. Further, the inhibition result with HCT-116 [16] and in the data set with HCT-116 [17] was “Active” each time.
As to `CC[C@@]1(O)C(=O)OCc2c1cc1n(c2=O)Cc2cc3c(CN(C)C)c(O)ccc3nc2-1` [TOPOTECAN], the LD50 (as a rule, the dose expected to kill half of the subjects tested) at 336 h in [18] was < 1000 mg/kg. The Activity in data set [19] is listed as > 10%.
